Values of other authors, collected in patent US6297235A, “Triazolopyridazine derivatives for treating anxiety and enhancing cognition” (Merck Sharp & Dohme Ltd., priority 1997, dated 2001).

How the values were obtained:
[1] = in vivo
[2] = reported by McNamara and Skelton, Psychobiology, 21:101-108

COC(=O)c1cc2c(cn1)[nH]c1ccccc12 [β-CCM]
proconvulsant or convulsant effect [1]: proconvulsant or convulsant
spatial learning in the Morris watermaze [2]: enhanced spatial learning
